Tests used:
[1] = molecular target: Sigma non-opioid intracellular receptor 1 (Homo sapiens, UniProt Q99720); experiment: DRUGMATRIX: Sigma1 radioligand binding (ligand: [3H] Haloperidol); assay type: cell membranes, Jurkat, Membrane; settings: jurkat; Not Active = under 50% inhibition at 10 µM
[2] = DRUGMATRIX: Leukotriene, BLT (LTB4) radioligand binding (ligand: [3H]LTB4); assay type: cell membranes, Membrane; settings: u-937; Not Active = under 50% inhibition at 10 µM
Cathepsin G = molecular target: T1, Cathepsin G (Homo sapiens, UniProt P08311); assay type: tissue-based; settings: neutrophil;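 further: inhibition of Cathepsin G enzyme activity, tested on an AMC-conjugated peptide substrate; in other assays of this panel Not Active means under 50% inhibition at 10 µM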
T1 sequence (P08311 whole entry): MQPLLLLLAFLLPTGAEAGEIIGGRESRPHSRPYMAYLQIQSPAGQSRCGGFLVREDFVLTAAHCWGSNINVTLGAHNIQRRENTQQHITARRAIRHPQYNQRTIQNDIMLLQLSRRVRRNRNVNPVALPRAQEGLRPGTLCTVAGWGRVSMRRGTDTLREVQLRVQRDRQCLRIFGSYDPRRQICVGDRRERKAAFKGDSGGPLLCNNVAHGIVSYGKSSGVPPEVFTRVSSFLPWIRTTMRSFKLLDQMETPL

[3] = molecular target: T2, Alpha-2A adrenergic receptor (Homo sapiens, UniProt P08913); assay type: cell membranes, Sf9, Membrane; further: in other assays of this panel Not Active means under 50% inhibition at 10 µM
T2 sequence (P08913 whole entry): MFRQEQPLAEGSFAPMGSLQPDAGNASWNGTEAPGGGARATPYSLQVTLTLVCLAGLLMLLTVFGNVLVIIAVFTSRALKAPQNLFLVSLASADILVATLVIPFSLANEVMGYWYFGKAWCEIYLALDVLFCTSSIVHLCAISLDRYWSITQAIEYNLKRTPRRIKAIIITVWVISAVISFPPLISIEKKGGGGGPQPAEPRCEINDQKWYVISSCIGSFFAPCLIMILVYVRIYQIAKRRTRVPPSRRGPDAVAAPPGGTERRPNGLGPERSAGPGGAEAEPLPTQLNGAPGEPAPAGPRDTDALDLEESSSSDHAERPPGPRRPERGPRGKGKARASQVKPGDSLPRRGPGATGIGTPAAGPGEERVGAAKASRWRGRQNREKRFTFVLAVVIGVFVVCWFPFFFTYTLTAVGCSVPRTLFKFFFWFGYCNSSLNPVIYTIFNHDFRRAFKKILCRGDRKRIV

[4] = molecular target: T3, Alpha-1B adrenergic receptor (Rattus norvegicus, UniProt P15823); experiment: DRUGMATRIX: Alpha-1B adrenergic receptor radioligand binding (ligand: prazosin); assay type: cell membranes, Wistar, Liver, Membrane; settings: Not Active = under 50% inhibition at 10 µM
T3 sequence (P15823 whole entry): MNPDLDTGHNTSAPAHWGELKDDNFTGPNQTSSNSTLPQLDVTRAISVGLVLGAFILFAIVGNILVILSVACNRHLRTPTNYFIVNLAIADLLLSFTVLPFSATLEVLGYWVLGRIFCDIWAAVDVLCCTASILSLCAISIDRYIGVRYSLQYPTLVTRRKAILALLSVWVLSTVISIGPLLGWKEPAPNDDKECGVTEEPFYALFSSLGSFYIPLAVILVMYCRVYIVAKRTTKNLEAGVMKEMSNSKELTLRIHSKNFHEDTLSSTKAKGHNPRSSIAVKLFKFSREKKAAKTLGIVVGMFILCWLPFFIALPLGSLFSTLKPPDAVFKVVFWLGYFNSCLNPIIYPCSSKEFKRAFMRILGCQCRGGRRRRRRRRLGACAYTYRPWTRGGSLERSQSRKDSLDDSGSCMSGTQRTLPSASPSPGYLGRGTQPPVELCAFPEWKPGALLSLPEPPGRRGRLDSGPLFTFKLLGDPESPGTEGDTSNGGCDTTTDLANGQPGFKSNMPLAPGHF

[5] = DRUGMATRIX: Sodium/nucleoside co-transporter radioligand binding (ligand: nitrobenzylthioinosine); assay type: cell membranes, Cavia porcellus, Dunkin-Hartley, Cerebral cortex, Membrane; settings: Not Active = under 50% inhibition at 10 µM

Sigma non-opioid intracellular receptor 1, sequence (Q99720 whole entry): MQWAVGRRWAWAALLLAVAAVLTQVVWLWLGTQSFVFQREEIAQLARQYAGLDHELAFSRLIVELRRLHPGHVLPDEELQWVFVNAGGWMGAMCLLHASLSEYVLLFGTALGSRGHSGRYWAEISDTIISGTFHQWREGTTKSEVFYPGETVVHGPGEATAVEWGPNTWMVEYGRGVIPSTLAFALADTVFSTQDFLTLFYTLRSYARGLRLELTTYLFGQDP

Structure (SMILES)	IC50 [1]	IC50 [2]	Ki [2]	IC50 (Cathepsin G)	IC50 ([3]; read-out: IC50)	Ki ([3]; read-out: Ki)	IC50 [4]	IC50 [5]	Ki [5]	IC50 ([3]; sf9)
Oc1c(Cl)cc(Cl)c(Cl)c1Cc1c(O)c(Cl)cc(Cl)c1Cl [HEXACHLOROPHENE]	Not Active	Not Active	Not Active	Not Active	5.5 µM	2.06 µM	Not Active	Not Active	Not Active	–
NNc1nncc2ccccc12 [HYDRALAZINE]	Not Active	Not Active	Not Active	Not Active	–	–	Not Active	Not Active	Not Active	Not Active
CC(=O)[C@@]1(O)CC[C@H]2[C@@H]3CCC4=CC(=O)CC[C@]4(C)[C@H]3CC[C@@]21C [HYDROXYPROGESTERONE]	Not Active	Not Active	Not Active	Not Active	–	–	Not Active	Not Active	Not Active	Not Active
COC1=C(OC)C(=O)C(CCCCCCCCCCO)=C(C)C1=O [IDEBENONE]	Not Active	Not Active	Not Active	Not Active	–	–	Not Active	Not Active	Not Active	Not Active
CC(C)NNC(=O)c1ccncc1 [IPRONIAZID]	Not Active	Not Active	Not Active	Not Active	–	–	Not Active	Not Active	Not Active	Not Active
Cc1c(OCC(F)(F)F)ccnc1C[S+]([O-])c1nc2ccccc2[nH]1 (stereo not given) [LANSOPRAZOLE]	Not Active	Not Active	Not Active	Not Active	–	–	Not Active	Not Active	Not Active	Not Active
O=c1cc(N2CCOCC2)oc2c(-c3ccccc3)cccc12 [LY-294002]	Not Active	Not Active	Not Active	Not Active	–	–	Not Active	Not Active	Not Active	Not Active
COc1ccc2[nH]cc(CCNC(C)=O)c2c1 [MELATONIN]	Not Active	Not Active	Not Active	Not Active	–	–	Not Active	Not Active	Not Active	Not Active
NC(=O)C[S+]([O-])C(c1ccccc1)c1ccccc1 (stereo not given) [MODAFINIL]	Not Active	Not Active	Not Active	Not Active	–	–	Not Active	Not Active	Not Active	Not Active
CCN(CC)CCOCCC1=CCC2CC1C2(C)C (stereo not given) [MYRTECAINE]	Not Active	Not Active	Not Active	Not Active	–	–	Not Active	Not Active	Not Active	Not Active
O=C(O)c1cccnc1Nc1cccc(C(F)(F)F)c1 [NIFLUMIC ACID]	Not Active	Not Active	Not Active	Not Active	–	–	Not Active	Not Active	Not Active	Not Active
O=C(N/N=C/c1ccc([N+](=O)[O-])o1)c1cc([N+](=O)[O-])cc([N+](=O)[O-])c1O [NIFURSOL]	Not Active	Not Active	Not Active	Not Active	–	–	Not Active	Not Active	Not Active	Not Active
COC(=O)Nc1nc2ccc(C(=O)c3cccs3)cc2[nH]1 [NOCODAZOLE]	Not Active	Not Active	Not Active	Not Active	–	–	Not Active	Not Active	Not Active	Not Active

Source: ChEMBL document CHEMBL1909046, “DrugMatrix in vitro pharmacology data”
